Test results from ChEMBL document CHEMBL4732150 (J Med Chem, 2021).

Legend:
[1] = (§1) Drug metabolism in Beagle dog liver microsomes assessed as 3,3-dideuterio-N-[4-methoxy-2-[methyl-[2-(methylamino)ethyl]amino]-5-[[4-[1-(trideuteriomethyl)indol-3-yl]pyrimidin-2-yl]amino]phenyl]prop-2-enamide metabolite formation preincubated for 10 mins under shaking condition followed by NADPH generating system addition and measured up to 60 mins by LC-MS/MS analysis; format: ADME, Canis lupus familiaris, Microsome; settings: 1 h, time <=70 min
[2] = as §1, with “Sprague-Dawley rat” for “Beagle dog”; format: ADME, Microsome; settings: 1 h, time <=70 min
[3] = Tmax in Sprague-Dawley rat at 6 mg/kg/day, IG administered for 7 consecutive days by LC-MS/MS analysis; format: ADME, organism-based; settings: in vivo, po, time 7 day
[4] = Tmax in Sprague-Dawley rat at 2 mg/kg, IG administered as single dose and measured upto 24 hrs by LC-MS/MS analysis; format: ADME, organism-based; settings: in vivo, po
[5] = Half life in Beagle dog liver microsomes preincubated for 10 mins under shaking condition followed by NADPH generating system addition and measured up to 60 mins by LC-MS/MS analysis
[6] = Half life in cynomolgus monkey liver microsomes preincubated for 10 mins under shaking condition followed by NADPH generating system addition and measured up to 60 mins by LC-MS/MS analysis
[7] = Intrinsic clearance in Beagle dog liver microsomes preincubated for 10 mins under shaking condition followed by NADPH generating system addition and measured up to 60 mins by LC-MS/MS analysis; format: ADME, Canis lupus familiaris, Microsome; settings: 1 h, time <=70 min
[8] = Intrinsic clearance in cynomolgus monkey liver microsomes preincubated for 10 mins under shaking condition followed by NADPH generating system addition and measured up to 60 mins by LC-MS/MS analysis; format: ADME, Macaca fascicularis, Microsome; settings: 1 h, time <=70 min
[9] = (§2) Drug metabolism in CD1 mouse liver microsomes assessed as 3,3-dideuterio-N-[2-(2-dimethylaminoethylamino)-4-methoxy-5-[[4-[1-(trideuteriomethyl)indol-3-yl]pyrimidin-2-yl]amino]phenyl]prop-2-enamide metabolite formation preincubated for 10 mins under shaking condition followed by NADPH generating system addition and measured up to 60 mins by LC-MS/MS analysis; format: ADME, Microsome; settings: 1 h, time <=70 min
[10] = as §2, with “Sprague-Dawley rat” for “CD1 mouse”; format: ADME, Microsome; settings: 1 h, time <=70 min
[11] = Drug metabolism in Beagle dog liver microsomes assessed as 3,3-dideuterio-N-[2-(2-dimethylaminoethylamino)-4-methoxy-5-[[4-[1-(trideuteriomethyl)indol-3-yl]pyrimidin-2-yl]amino]phenyl]prop-2-enamide metabolite formation preincubated for 10 mins under shaking condition followed by NADPH generating system addition and measured up to 60 mins by LC-MS/MS analysis; format: ADME, Canis lupus familiaris, Microsome; settings: 1 h, time <=70 min
[12] = Drug metabolism in CD1 mouse liver microsomes assessed as 3,3-dideuterio-N-[4-methoxy-2-[methyl-[2-(methylamino)ethyl]amino]-5-[[4-[1-(trideuteriomethyl)indol-3-yl]pyrimidin-2-yl]amino]phenyl]prop-2-enamide metabolite formation preincubated for 10 mins under shaking condition followed by NADPH generating system addition and measured up to 60 mins by LC-MS/MS analysis; format: ADME, Microsome; settings: 1 h, time <=70 min
[13] = (§3) Drug metabolism in CD1 mouse liver microsomes assessed as 3,3-dideuterio-N-[4-methoxy-2-(methylamino)-5-[[4-[1-(trideuteriomethyl)indol-3-yl]pyrimidin-2-yl]amino]phenyl]prop-2-enamide metabolite formation preincubated for 10 mins under shaking condition followed by NADPH generating system addition and measured up to 60 mins by LC-MS/MS analysis; format: ADME, Microsome; settings: 1 h, time <=70 min
[14] = as §3, with “Sprague-Dawley rat” for “CD1 mouse”; format: ADME, Microsome; settings: 1 h, time <=70 min
[15] = Cmax in Sprague-Dawley rat at 2 mg/kg, IG administered as single dose and measured upto 24 hrs by LC-MS/MS analysis; format: ADME, organism-based; set-up: route […], dose 2 mg/kg, time <=24; settings: in vivo, po
[16] = Cmax in Sprague-Dawley rat assessed as AZ5104-D2 at 6 mg/kg/day, IG administered for 7 consecutive days by LC-MS/MS analysis; format: ADME, organism-based; set-up: route […], dose 6 mg/kg/day, time 7 day; settings: in vivo, po, 168 h
[17] = Tmax in Sprague-Dawley rat assessed as AZ5104-D2 at 6 mg/kg/day, IG administered for 7 consecutive days by LC-MS/MS analysis; format: ADME, organism-based; settings: in vivo, po, 168 h, time 7 day
[18] = Oral bioavailability in Sprague-Dawley rat at 6 mg/kg/day, IG administered for 7 consecutive days by LC-MS/MS analysis; format: ADME, organism-based; settings: in vivo, time 7 day
Cytochrome P450 1A2 = molecular target: T1, Cytochrome P450 1A2 (Homo sapiens, UniProt P05177); assay: Inhibition of CYP1A2 in human liver microsomes using phenacetin as substrate preincubated for 10 mins in presence of NADPH generating system followed by substrate addition and measured after 3 mins by LC-MS/MS analysis; format: ADME
T1 sequence (P05177 whole entry): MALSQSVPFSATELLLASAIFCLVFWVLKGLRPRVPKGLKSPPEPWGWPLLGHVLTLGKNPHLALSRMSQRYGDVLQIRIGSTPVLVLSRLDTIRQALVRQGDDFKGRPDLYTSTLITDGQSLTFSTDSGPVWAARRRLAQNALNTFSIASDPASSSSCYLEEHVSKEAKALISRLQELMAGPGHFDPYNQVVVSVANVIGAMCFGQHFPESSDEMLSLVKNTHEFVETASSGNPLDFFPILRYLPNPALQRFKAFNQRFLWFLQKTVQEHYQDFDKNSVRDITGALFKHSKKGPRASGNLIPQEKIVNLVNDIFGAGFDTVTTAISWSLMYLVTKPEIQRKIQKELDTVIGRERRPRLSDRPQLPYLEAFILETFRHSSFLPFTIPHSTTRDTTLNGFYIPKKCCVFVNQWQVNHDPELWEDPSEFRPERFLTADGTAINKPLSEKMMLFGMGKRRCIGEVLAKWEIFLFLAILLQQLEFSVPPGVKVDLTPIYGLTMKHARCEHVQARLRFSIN

Cytochrome P450 2B6 = molecular target: T2, Cytochrome P450 2B6 (Homo sapiens, UniProt P20813); assay: Inhibition of CYP2B6 in human liver microsomes using bupropion as substrate preincubated for 10 mins in presence of NADPH generating system followed by substrate addition and measured after 10 mins by LC-MS/MS analysis; format: ADME
T2 sequence (P20813 whole entry): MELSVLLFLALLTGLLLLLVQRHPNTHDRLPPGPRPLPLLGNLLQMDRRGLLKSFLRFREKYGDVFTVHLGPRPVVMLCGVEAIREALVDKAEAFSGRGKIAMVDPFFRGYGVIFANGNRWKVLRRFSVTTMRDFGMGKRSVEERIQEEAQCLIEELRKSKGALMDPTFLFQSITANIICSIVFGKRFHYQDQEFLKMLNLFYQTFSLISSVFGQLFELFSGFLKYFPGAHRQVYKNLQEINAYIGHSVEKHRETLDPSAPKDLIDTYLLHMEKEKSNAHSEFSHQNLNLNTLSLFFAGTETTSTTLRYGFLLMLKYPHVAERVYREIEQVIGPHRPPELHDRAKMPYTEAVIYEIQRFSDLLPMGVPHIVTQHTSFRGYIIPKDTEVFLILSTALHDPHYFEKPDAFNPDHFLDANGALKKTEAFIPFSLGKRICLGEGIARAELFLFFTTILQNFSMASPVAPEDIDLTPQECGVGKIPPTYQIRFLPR

Cytochrome P450 2C9 = Cytochrome P450 2C9 (Homo sapiens, UniProt P11712); assay: Inhibition of CYP2C9 in human liver microsomes using diclofenac as substrate preincubated for 10 mins in presence of NADPH generating system followed by substrate addition and measured after 10 mins by LC-MS/MS analysis; format: ADME
[19] = Cmax in Sprague-Dawley rat at 6 mg/kg/day, IG and measured on day 7 by LC-MS/MS analysis; format: ADME, organism-based; set-up: route […], dose 6 mg/kg/day, time 7 day; settings: in vivo, po
in vivo = settings: Sprague-Dawley, rat, po, 2 mg/kg

Chain of Cytochrome P450 2C9 (P11712 whole entry): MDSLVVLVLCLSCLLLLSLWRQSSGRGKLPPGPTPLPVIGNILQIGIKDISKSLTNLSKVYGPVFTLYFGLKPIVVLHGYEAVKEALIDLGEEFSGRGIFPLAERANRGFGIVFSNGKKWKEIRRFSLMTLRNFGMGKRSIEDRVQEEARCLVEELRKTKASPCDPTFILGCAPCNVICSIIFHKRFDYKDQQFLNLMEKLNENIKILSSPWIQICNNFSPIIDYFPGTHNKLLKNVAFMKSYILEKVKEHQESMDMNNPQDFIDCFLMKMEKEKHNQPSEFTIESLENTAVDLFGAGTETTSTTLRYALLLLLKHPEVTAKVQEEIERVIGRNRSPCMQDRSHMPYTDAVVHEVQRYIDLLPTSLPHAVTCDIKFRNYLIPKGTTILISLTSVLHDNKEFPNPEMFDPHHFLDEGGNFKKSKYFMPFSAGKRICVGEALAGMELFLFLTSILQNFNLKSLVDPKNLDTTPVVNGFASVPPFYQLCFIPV

In the case of CS(=O)(=O)O.[2H]C([2H])=CC(=O)Nc1cc(Nc2nccc(-c3cn(C([2H])([2H])[2H])c4ccccc34)n2)c(OC)cc1N(C)CCN(C)C, the Drug metabolism [1] is reported as “Metabolite_Detected”, the Drug metabolism [2] is reported as “Metabolite_Detected” and the Tmax [3] is reported as 4.67 h. For the same molecule, the Tmax [4] was 4.17 h, the half-life at 1 h [5] was 0.377 h and the half-life at 1 h [6] was 0.427 h. For the same molecule, the CLint [7] was 61.3 µL/min/mg, the CLint [8] was 54.2 µL/min/mg and the Drug metabolism [9] was “Metabolite_Detected”. The Drug metabolism [10] was “Metabolite_Detected”, the Drug metabolism [11] was “Metabolite_Detected” and the Drug metabolism [12] was “Metabolite_Detected”. For the same molecule, the Drug metabolism [13] was “Metabolite_Detected”, the Drug metabolism [14] was “Metabolite_Detected” and the Cmax [15] was 46.7 nM. The Cmax [16] was 0.395 nM, the Tmax [17] was 6.8 h and the bioavailability [18] was 29.6%. The IC50 (Cytochrome P450 1A2) was 39.8 µM, the IC50 (Cytochrome P450 2B6) was > 50 µM and the IC50 (Cytochrome P450 2C9) was > 50 µM. It also gave a Cmax [19] of 180 nM and a half-life at 24 h (in vivo) of 3.76 h.
